Usually pIC50 stands for −log10 of the IC50, conventionally taken in molar units. Usually bioavailability stands for dose-corrected exposure relative to a reference, in per cent. Usually half-life stands for the time in which the quantity being followed falls by half.

pIC50: −log10 of the molar value. Where two headings read alike, the source gives them in different places.

These results are taken from patent US7138525B2, “N-substituted-2-oxodihydropyridine derivatives” (Banyu Pharmaceutical Co., Ltd., priority 2002, dated 2006).

The target in one series is T1, human NPY Y5 receptor (Homo sapiens, UniProt Q15761).
T1 construct: expressed in transfected cells; host or cells: COS-7, CHO and LM(tk-) cells (membrane preparation)
T1 sequence (Q15761 1-445): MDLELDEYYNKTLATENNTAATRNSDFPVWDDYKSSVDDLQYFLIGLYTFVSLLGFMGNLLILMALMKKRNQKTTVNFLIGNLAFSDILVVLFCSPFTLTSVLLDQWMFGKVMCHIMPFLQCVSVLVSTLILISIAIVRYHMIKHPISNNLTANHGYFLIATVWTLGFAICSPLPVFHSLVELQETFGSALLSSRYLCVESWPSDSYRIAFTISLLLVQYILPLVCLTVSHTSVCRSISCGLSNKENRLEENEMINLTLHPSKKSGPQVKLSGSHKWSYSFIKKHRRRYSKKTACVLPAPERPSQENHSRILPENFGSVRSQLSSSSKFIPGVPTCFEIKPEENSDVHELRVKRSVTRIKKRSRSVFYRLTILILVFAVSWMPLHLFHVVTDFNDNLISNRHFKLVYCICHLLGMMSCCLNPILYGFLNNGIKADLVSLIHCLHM
The series can be described thus: NPY binding inhibition test ([125I]peptideYY binding to membranes of NPY Y5 receptor expressing cells). Particulars: 25° C., 2 hours, membrane of NPY Y5 receptor expressing cells, read-out: IC50 against specific peptideYY binding. From the text: cDNA sequence encoding human NPY Y5 receptor (c.f. International patent publication number WO96/16542) was cloned into expression vectors pcDNA3, pRc/RSV (made by Invitrogen Inc.) and pCI-neo (made by Promega Inc.). The expression vectors thus obtained were transfected to host cells COS-7, CHO and LM(tk−) (American Type Culture Collection) by cationic lipid method (Proceedings of the National Academy of Sciences of the United States of America, vol. 84: p. 7413(1987)) to give NPY Y5 receptor expression cells.
A membrane sample prepared from the cells which expressed NPY Y5 receptor was incubated together with a test compound and [^125I]peptideYY (made by NEN) (20,000 cpm) in an assay buffer (25 mM Tris buffer, pH7.4, containing 10 mM magnesium chloride, 1 mM phenylmethylsulfonyl fluoride, 0.1% bacitracin and 0.5% bovine serum albumin) at 25° C. for 2 hours, then filtered through a glass filter GF/C and washed with 5 mM Tris buffer (pH7.4) containing 0.3% BSA. The radio activity of the cake on the glass filter was measured. Non-specific binding was measured in the presence of 1 μM peptide YY, and a 50% Inhibitory Concentration (IC50) of the test compound against specific peptideYY binding was determined (Endocrinology, vol. 131: p. 2090(1992)).

A short description of series [1]: Pharmacokinetics test (plasma concentration by LC/MS/MS). It is filed as in vivo. Particulars: rat, male SD rats, overnight fasting, oral or intravenous administration. As to the method: A test compound was orally or intravenously administered to male SD rats (7–10 weeks old, 200–400 g) under the overnight fasting condition. About 100 μL of blood was collected from the tail vein by heparinized capillary at designated time. The blood was centrifuged (4° C., 6,000 r.p.m., 10 minutes) to obtain the plasma. 3-fold amount of ethanol containing an internal standard was added to plasma. The mixture was stirred, allowed to stand at −20° C. for 20 minutes, and then centrifuged (4° C., 10,000 r.p.m., 10 minutes). The supernatant was analyzed by LC/MS/MS, and the concentration of the test compound in the plasma was measured using a relative calibration curve.

Series [2] is described as follows: Brain/cerebrospinal fluid transport test. In kind it is in vivo. Particulars: male SD rats, 2 hours after oral administration (10 mg/kg); for concentration at 2 h: rat. As to the method: A test compound was orally or intravenously administered to male SD rats (7–10 weeks old, 200–400 g), and whole blood was collected from the abdominal aorta using a heparin-treated syringe under the ether anesthesia at designated time. Then, the head skin was cut out, and a dental 30 G needle was inserted between the cervical vertebrae, and it was further inserted into the cavum subarachnoideale. After 50 to 100 μL cerebrospinal fluid had been collected by a 1 ml-syringe through a tube connected to dental 30 G needle, the brain was extracted. The blood sample was centrifuged (4° C., 6,000 r.p.m., 10 minutes) to obtain the plasma. 3-fold amount of ethanol containing an internal standard was added, and stirred. The brain sample was homogenized after addition of 2 ml water, an aliquot of the homogenate was taken and 3-fold amount of ethanol containing an internal standard was added, and stirred. The cerebrospinal fluid was stirred after adding 3-fold amount of ethanol containing an internal standard. These samples were allowed to stand at −20° C. for 20 minutes, and then centrifuged (4° C., 12,000 g, 10 minutes). The supernatant was analyzed by LC/MS/MS, and the concentration of the test compound in the plasma, brain, and cerebrospinal fluid were measured by the method using a relative calibration curve.

As to `CCn1cc(C2=N[C@@](c3ccc(F)cc3)(c3ccc(F)nc3)[C@H](C)N2)cc(F)c1=O` [Example 1-25, 1-ethyl-3-fluoro-5-[(4S,5S)-4-(4-fluorophenyl)-4-(6-fluoro-3-pyridyl)-5-methyl-2-imidazolin-2-yl]-2-pyridone], the pIC50 at human NPY Y5 receptor is 8.54.

As for `CCn1cc(C2=NC(c3ccc(F)cc3)(c3ccc(C(F)(F)F)nc3)[C@H](C)N2)cc(F)c1=O` (single isomer, unassigned) [Example 1-29], the pIC50 on human NPY Y5 receptor is 8.54. Same read-out and setting: in the case of `CCn1cc(C2=NC(c3ccc(F)cc3)(c3ccc(C(F)(F)F)nc3)[C@H](C)N2)ccc1=O` (single isomer, unassigned) [Example 1-8] it was 8.68; in that of `CCc1cc(C2=N[C@@](c3ccc(F)cc3)(c3ccc(F)nc3)[C@H](C)N2)cn(C(F)F)c1=O` [Example 1-70, 1-difluoromethyl-3-ethyl-5-[(4S,5S)-4-(4-fluorophenyl)-4-(6-fluoro-3-pyridyl)-5-methyl-2-imidazolin-2-yl]-2-pyridone], 8.54. Consider `C[C@@H]1NC(c2ccc(=O)n(C(F)F)c2)=NC1(c1ccc(F)cc1)c1ccc(C(F)(F)F)nc1` (single isomer, unassigned) [Example 1-7], for which the pIC50 on human NPY Y5 receptor was 8.57. This compound also returned a bioavailability in series [1] of 94%. In series [1], this compound showed a half-life of 8.5 h. Further, in series [2], the “concentration in the brain” value came to 2.48 nmol/g. The concentration at 2 h in series [2] (cerebrospinal fluid, read-out: concentration in the cerebrospinal fluid) is 150 nM; in series [2] (plasma, read-out: concentration in the plasma), 3170 nM. As to `CCn1cc(C2=NC(c3ccc(Cl)cc3)(c3ccnc(F)c3)[C@H](C)N2)ccc1=O` (single isomer, unassigned) [Example 1-23], the negative-log IC50 (pIC50) on human NPY Y5 receptor was 8.55.

Consider `CCc1cc(C2=N[C@@](c3ccc(F)cc3)(c3ccc(F)nc3)[C@H](C)N2)cn(C)c1=O` [Example 1-39, 3-ethyl-5-[(4S,5S)-4-(4-fluorophenyl)-4-(6-fluoro-3-pyridyl)-5-methyl-2-imidazolin-2-yl]-1-methyl-2-pyridone], for which, on human NPY Y5 receptor, the pIC50 is 8.59. In the case of `CCn1cc(C2=NC(c3ccc(F)cc3)(c3ccc(C(F)(F)F)nc3)[C@H](C)N2)cc(Cl)c1=O` (single isomer, unassigned) [Example 1-11], the pIC50 on human NPY Y5 receptor is 8.64. For the compound `C[C@@H]1NC(c2ccc(=O)n(C(F)F)c2)=NC1(c1ccc(F)cc1)c1ccc(C(F)F)nc1` (single isomer, unassigned) [Example 1-42], the pIC50 at human NPY Y5 receptor was 8.55. On the same count and under the same terms, the result for `CCCn1cc(C2=NC(c3ccc(F)cc3)(c3ccc(C(F)(F)F)nc3)[C@H](C)N2)ccc1=O` (single isomer, unassigned) [Example 1-9] reads 8.82. On the same count and under the same terms, in the case of `COn1cc(C2=N[C@](c3ccc(F)cc3)(c3ccc(C(F)(F)F)nc3)[C@H](C)N2)ccc1=O` [Example 1-53, 5-[(4R,5S)-4-(4-fluorophenyl)-5-methyl-4-(6-trifluoromethyl-3-pyridyl)-2-imidazolin-2-yl]-1-methoxy-2-pyridone] it was 8.60.

For the compound `CCn1cc(C2=NC(c3ccc(F)cc3)(c3ccc(C(F)F)nc3)[C@H](C)N2)cc(F)c1=O` (single isomer, unassigned) [Example 1-45], the pIC50 at human NPY Y5 receptor is 8.55.

Regarding `C[C@@H]1NC(c2ccc(=O)n(C(F)F)c2)=NC1(c1ccc(Cl)cc1)c1ccnc(F)c1` (single isomer, unassigned) [Example 1-21], the negative logarithm of the IC50 (pIC50) on human NPY Y5 receptor was 8.57.
